Data published in patent US20260232701A1, “[…] AN […] REUPTAKE INHIBITOR FOR USE IN THE TREATMENT OF TREAMENT- RESISTANT DEPRESSION” (Compass Pathfinder Limited, priority 2021, published 2026).
In brackets after ≈: the same amount, converted by molar mass.

Tests used:
[1] = test system: participants with treatment-resistant depression (TRD); experiment: Safety: treatment emergent adverse events (TEAE), same study; format: in vivo, human
Text: Another objective is to evaluate the safety and tolerability of psilocybin in subjects with TRD based on AEs, changes in vital signs, and suicidal ideation/behaviour (measured using the Columbia-Suicide Severity Rating Scale [C-SSRS]) score at all visits.
Throughout the course of the study, all adverse events (AEs) will be monitored and recorded and will include the AE's description, start and end date, seriousness, severity, action taken, and relationship to the treatment. If AEs occur, the first concern will be the safety of the study subjects.
An AE can therefore be any unfavorable and unintended sign (including an abnormal laboratory finding, for example), symptom, or disease temporally associated with the use of a medicinal product, whether considered related to the medicinal product.
AEs will be coded by Preferred Term (PT) using the Medical Dictionary for Regulatory Activities (MedDRA) classification. All reported AEs with onset or worsening after the administration of study medication will be included in the analysis. The incidence of AEs will be summarized by treatment group, and by severity and relationship to psilocybin. Serious AEs and AEs leading to withdrawal from the study will be tabulated.
A TEAE is defined as any AE that has an onset on or after the dose of psilocybin, or any pre-existing condition that has worsened on or after the dose of psilocybin.
The incidence of TEAEs and treatment-related AEs will also be summarized by maximum severity and most-related relationship to psilocybin by MedDRA primary system organ class and PT. The summary will include the total number and percentage of subjects reporting an event.

[2] = test system: participants with treatment-resistant depression (TRD); experiment: Montgomery-Asberg Depression Rating Scale (MADRS), Phase IIb open-label study of psilocybin adjunct to SSRI; format: in vivo, human; settings: for MADRS total score, Mean (SD) / MADRS Remitters (MADRS total score ≤10) / MADRS Responders (≥50% decrease in MADRS total score from baseline) / MADRS total score, Change from baseline Mean (SD): 25 mg + SSRI, N = 19
Experimental: The effectiveness of 25 mg COMP360 as an adjunctive therapy in participants with TRD was explored.
The study was a Phase IIb, international multicentre, fixed-dose, open-label study. The study population included adult men and women, 18 years of age or older, with TRD. […] The duration of the current episode must be at least 3 months but not more than 2 years.
The psilocybin administration session (V3, day 1) will last approximately 6 h and will be supported by a trained therapist. The study drug will be administered simultaneously to up to six participants. Blood pressure will be monitored continuously during the session. The COMP360 administration session may be video recorded for training and adherence monitoring. After the acute effects of psilocybin pass, participants will be evaluated for safety and accompanied home. On day 2 (V4), the day following psilocybin administration, participants will be seen in person for a safety check, assessment of suicidality and clinical and self-report assessments, and to discuss their experience during the psilocybin administration session. All sessions between the therapist and the participant may be audio recorded for adherence monitoring and quality assurance.
The primary objective of this study is to evaluate the efficacy of 25 mg of psilocybin adjunct to serotonergic antidepressants in TRD participants, as assessed by the change in the Montgomery-Asberg Depression Rating Scale (MADRS) total score from baseline. Baseline is defined as the assessment score obtained on Day −1. The primary time point is week 3.
(§1) Additional objectives of this study are to assess the efficacy of psilocybin […] on the: • (a) proportion of subjects with response defined as a ≥50% decrease in MADRS total score from baseline to week 3. • (b) proportion of subjects with remission (defined as a MADRS total score ≤10) at week 3 post psilocybin administration. • (c) changes from baseline Clinical Global Impression-Severity scale (CGI-S) at week 3 post psilocybin administration.

[3] = test system: participants with treatment-resistant depression (TRD); experiment: Clinical Global Impression - Improvement scale (CGI-I), same study; format: in vivo, human; settings: 25 mg + SSRI, N = 19
[4] = test system: participants with treatment-resistant depression (TRD); experiment: Clinical Global Impression - Severity scale (CGI-S), same study; format: in vivo, human; settings: for CGI-S Responders: 25 mg + SSRI, N = 19
Experimental: as §1

[5] = 25 mg adjunct to SSRI, 19 patients
[6] = on the day of dosing or the day after
[7] = severity mild, 25 mg + SSRI, N = 19
[8] = severity moderate, 25 mg + SSRI, N = 19
[9] = week 3, single 25 mg dose adjunct to SSRI

## CN(C)CCc1c[nH]c2cccc(OP(=O)(O)O)c12 [COMP360, psilocybin]
[1]; [5]
  TEAEs classed as serious (TESAEs): no TEAEs classed as serious
  TEAEs related to suicidal ideation or behaviour or intentional self-injury: no TEAEs related to suicidal ideation or behaviour or intentional self-injury
  tolerability: generally well tolerated
[1]; all cases
  resolution of headache TEAE: all cases resolved in one or two days
[1]; [6]
  most common TEAE headache, events: 6 events
  most common TEAE headache, participants: 6 participants
[1]; [7]
  TEAE Blood pressure increase: 1 (5.3) n (%)
  TEAE Diarrhoea: 1 (5.3) n (%)
  TEAE Dizziness: 1 (5.3) n (%)
  TEAE Dry mouth: 1 (5.3) n (%)
  TEAE Fall: 1 (5.3) n (%)
  TEAE Headache: 5 (26.3) n (%)
  TEAE Palpitations: 1 (5.3) n (%)
  TEAE Skin abrasion: 1 (5.3) n (%)
  TEAE Vertigo: 1 (5.3) n (%)
[1]; [8]
  TEAE Depression: 1 (5.3) n (%)
  TEAE Headache: 1 (5.3) n (%)
[1]; severity severe, 25 mg + SSRI, N = 19
  TEAE Hypertension: 1 (5.3) n (%)
Solubility in water
  solubility: ~15 mg/mL (≈ 52.8 mM)
[2]; Baseline (before dosing)
  MADRS total score, Mean (SD): 31.7 (5.77)
[2]; Day 2
  MADRS Remitters (MADRS total score ≤10): 10 (52.6) n (%)
  MADRS Responders (≥50% decrease in MADRS total score from baseline): 12 (63.2) n (%)
  MADRS total score, Change from baseline Mean (SD): −18.3 (11.85)
  MADRS total score, Mean (SD): 13.4 (12.92)
[2]; Week 1
  MADRS Remitters (MADRS total score ≤10): 9 (47.4) n (%)
  MADRS Responders (≥50% decrease in MADRS total score from baseline): 11 (57.9) n (%)
  MADRS total score, Change from baseline Mean (SD): −17.1 (11.29)
  MADRS total score, Mean (SD): 14.6 (11.88)
[2]; Week 2
  MADRS Remitters (MADRS total score ≤10): 8 (42.1) n (%)
  MADRS Responders (≥50% decrease in MADRS total score from baseline): 11 (57.9) n (%)
  MADRS total score, Change from baseline Mean (SD): −15.7 (12.02)
  MADRS total score, Mean (SD): 16.0 (11.70)
[2]; Week 3
  MADRS Remitters (MADRS total score ≤10): 8 (42.1) n (%)
  MADRS Responders (≥50% decrease in MADRS total score from baseline): 8 (42.1) n (%)
  MADRS total score, Change from baseline Mean (SD): −14.9 (11.97)
  MADRS total score, Mean (SD): 16.8 (11.62)
[2]; by week 3, single 25 mg dose adjunct to SSRI
  proportion of participants who were MADRS remitters: ~ 42%
[2]; [9]
  proportion of participants who were MADRS responders: ~ 42%
[2]; week 3, single 25 mg dose adjunct to SSRI, 19 patients
  average reduction in MADRS total score from baseline: 14.9
[3]; Day 2
  CGI-I Responders: 11 (57.9) n (%)
[3]; Week 1
  CGI-I Responders: 12 (63.2) n (%)
[3]; Week 2
  CGI-I Responders: 8 (42.1) n (%)
[3]; Week 3
  CGI-I Responders: 7 (36.8) n (%)
[4]; Day 2
  CGI-S Responders: 8 (42.1) n (%)
[4]; Week 1
  CGI-S Responders: 12 (63.2) n (%)
[4]; Week 2
  CGI-S Responders: 11 (57.9) n (%)
[4]; Week 3
  CGI-S Responders: 10 (52.6) n (%)
[4]; baseline ("moderately ill")
  average CGI-S score: 4
[4]; week 3 ("mildly ill"), single 25 mg dose adjunct to SSRI
  average CGI-S score: 3
[4]; [9]
  proportion of participants who were CGI-S responders: 52.6%
